Measurements taken from ChEMBL document CHEMBL3400035, “Synthesis, in vitro anticancer and antimycobacterial evaluation of new 5-(2,5-dimethoxyphenyl)-1,3,4-thiadiazole-2-amino derivatives” (Bioorg Med Chem Lett, 2015).
Active and inactive are the calls of the source. The calls are words filed in the database; no cut-off is given here.

How the values were obtained:
[1] = Cytotoxicity against HEK293 cells assessed as cell growth at 25 uM by MTT assay; format: cell-based; settings: human, read-out: Activity
MDA-MB-231 [2] = experiment: Cytotoxicity against human MDA-MB-231 cells assessed as growth inhibition at 25 uM by MTT assay; format: functional; settings: read-out: GI
HT-29 = experiment: Cytotoxicity against human HT-29 cells assessed as growth inhibition at 25 uM by MTT assay; format: functional; settings: read-out: GI
[3] = system: Mycolicibacterium smegmatis; experiment: Anti-tubercular activity against Mycobacterium smegmatis str. MC2 155 at 30 uM; format: functional, organism-based
[4] = system: Mycolicibacterium smegmatis; experiment: Anti-tubercular activity against Mycobacterium smegmatis str. MC2 155; format: functional, organism-based
[5] = system: Mycolicibacterium smegmatis; experiment: Anti-tubercular activity against Mycobacterium smegmatis str. MC2 155 relative to untreated control; format: functional
MDA-MB-231 [6] = experiment: Cytotoxicity against human MDA-MB-231 cells assessed as growth inhibition by MTT assay; format: functional, cell-based

SMILES	viability at 25 µM [1] [%]	inhibition of growth at 25 µM (MDA-MB-231 [2]) [%]	inhibition of growth at 25 µM (HT-29) [%]	inhibition [3]	IC50 [4] [µM]	inhibition (INH) [5]	IC50 (MDA-MB-231 [6]) [µM]
COc1ccc(OC)c(-c2nnc(-c3ccc(C)c([N+](=O)[O-])c3)s2)c1	> 74.5	53.3	51.9	inactive	–	–	–
COc1ccc(OC)c(-c2nnc(N3CCNCC3)s2)c1	> 74.5	41.6	25.5	–	88.1	>=30%	–
CO[C@H]1/C=C/O[C@@]2(C)Oc3c(C)c(O)c4c(O)c(c(/C=N/N5CCN(C)CC5)c(O)c4c3C2=O)NC(=O)/C(C)=C\C=C\[C@H](C)[C@H](O)[C@@H](C)[C@@H](O)[C@@H](C)[C@H](OC(C)=O)[C@@H]1C [RIFAMPIN]	–	–	–	–	1.87	–	–
COc1ccc(OC)c(-c2nnc(NCc3cccc(C(F)(F)F)c3)s2)c1	< 74.5	51.2	52.6	–	40.9	>=30%	–
COc1ccc(OC)c(-c2nnc(N3CCOCC3)s2)c1	> 74.5	31.2	18.2	–	> 100	>=30%	–
COc1ccc(OC)c(-c2nnc(NCc3ccc(Br)cc3)s2)c1	< 74.5	51.5	45.4	–	> 100	>=30%	–
COc1ccc(OC)c(-c2nnc(N3CCCC(O)C3)s2)c1 (stereo not drawn)	> 74.5	39.7	31.1	–	> 100	>=30%	–
COc1ccc(OC)c(-c2nnc(N3CCC(=O)CC3)s2)c1	> 74.5	32.5	33.7	–	> 100	>=30%	–
COc1ccc(OC)c(-c2nnc(N3CCCC3)s2)c1	> 74.5	38.1	18.8	inactive	–	–	–
NNC(=O)c1ccncc1 [ISONIAZID]	–	–	–	–	16	–	–
COc1ccc(CN2CCN(c3nnc(-c4cc(OC)ccc4OC)s3)CC2)cc1	> 74.5	36.5	39.8	–	80.3	>=30%	–
COc1ccc(OC)c(-c2nnc(NCc3ccccc3)s2)c1	< 74.5	63	68.3	–	75.6	>=30%	–
COc1ccc(OC)c(-c2nnc(N3CCC(Cc4ccccc4)CC3)s2)c1	> 74.5	33.6	51	–	65.7	>=30%	–
COc1ccc(OC)c(CNc2nnc(-c3cc(OC)ccc3OC)s2)c1	> 74.5	30.2	47.2	–	> 100	>=30%	–
COc1ccc(OC)c(-c2nnc(Cl)s2)c1	> 74.5	33.7	8.81	–	75.6	>=30%	–
COc1ccc(OC)c(-c2nnc(-n3ccnc3)s2)c1	> 74.5	33.5	21	inactive	–	–	–
COc1cccc2c1C(=O)c1c(O)c3c(c(O)c1C2=O)C[C@@](O)(C(=O)CO)C[C@@H]3O[C@H]1C[C@H](N)[C@H](O)[C@H](C)O1 [DOXORUBICIN]	–	–	–	–	–	–	1
COc1ccc(OC)c(-c2nnc(N3CCCCC3)s2)c1	> 74.5	32.8	3.67	inactive	–	–	–
COc1ccc(OC)c(-c2nnc(N)s2)c1	> 74.5	32	20.6	–	> 100	>=30%	–
CCN1CCN(c2nnc(-c3cc(OC)ccc3OC)s2)CC1	> 74.5	34.6	9.91	–	> 100	>=30%	–
COc1ccc(OC)c(-c2nnc(NCc3ccc(Cl)cc3)s2)c1	< 74.5	53.8	68.7	–	> 100	>=30%	–
COc1ccc(OC)c(-c2nnc(-n3ccc4cc(OC)ccc43)s2)c1	> 74.5	24.7	5.65	inactive	–	–	–
